Source: patent US12595438B2, “Biodegradable quaternary ammonium compound” (GALAXY SURFACTANTS LTD., priority 2021, dated 2026)

Legend:
Format in all cases: cell-based
C. albicans ATCC 10231 = assay: MIC determination, test tube method; conditions: tryptic soy broth, 22.5° C. for 48-72 hours
Excerpt: (§1) The Minimum Inhibitory concentration (MIC) is the lowest dilution which inhibits the growth of microorganism. MIC assays generate a value in μg/mL for the exact, lowest concentration of the antimicrobial agent that prevents the visible growth of bacteria. MIC was detected by using test tube method using different dilution in sterile tryptic soya broth (growth medium). (Ref.: https://www.ncbi.nlm.nih.gov/pmc/articles/PMC7470068/ this link describes about Test tube method of MIC)
(§2) • Working stock preparation: 1% in sterile D/W • Diluent: Sterile tryptic soy broth • Dilution range: 0.1% to 1%, further diluted to 100 ppm to 1000 ppm • Addition of culture: 0.1 mL of 18-24 hours old culture • Incubation temperature and time: • Bacteria: 37° C. for 24-48 hours • Y/M: 22.5° C. for 48-72 hours
(§3) Antimicrobial efficacy of diamidoquat was studied as per MIC standard protocol.

A. niger ATCC 16404 = assay: MIC determination, test tube method; conditions: tryptic soy broth, 22.5° C. for 48-72 hours
Excerpt: as §1, §2, §3

E. coli ATCC 10142 = assay: MIC determination, test tube method; conditions: tryptic soy broth, 37° C. for 24-48 hours
Excerpt: as §1, §2, §3

S. aureus ATCC 6538 = assay: MIC determination, test tube method; conditions: tryptic soy broth, 37° C. for 24-48 hours
Excerpt: as §1, §2, §3

Test Organism = assay: Overall MIC over all test organisms
Excerpt: as §1, §2
(§4) The minimum inhibitory concentration (MIC) of Diamidoquat (DAQ), Benzalkonium chloride (BKC) and Esterquat (EQ) is shown in Table 1.
as §3

P. aeruginosa ATCC 9372 = assay: MIC determination, test tube method; conditions: tryptic soy broth, 37° C. for 24-48 hours
Excerpt: as §1, §2, §4, §3

Benzalkonium chloride [BKC]
0.6%: MIC (S. aureus ATCC 6538)
0.7%: MIC (C. albicans ATCC 10231) | MIC (A. niger ATCC 16404) | MIC (E. coli ATCC 10142) | Overall MIC (Test Organism) | MIC (P. aeruginosa ATCC 9372)
